Measurements: US20250122541A1, “ENZYMATIC AND CHEMICAL CATALYSIS FOR PRODUCTION FROM GLUCOSE OF THE PHARMACEUTICAL PRECURSOR, S-3-HYDROXY- Y -BUTYROLACTONE HBL” (The United States, as represented by the Secretary of …, priority 2023, published 2025)
Several values for one entry are separate records, joined by “and”; a condition that tells them apart may be missing. Equal entries are not always repeated.

Experiments:
[1] = Half-life of BPP followed spectroscopically at 265 nm; type: physicochemical; conditions: phosphate buffer (enzyme-free ultrafiltrate of the reaction), pH 6, 0.1 M phosphate, first-order decay, after removal of D1*D2D3 by ultrafiltration, read-out: half-life (t1/2)
Protocol: The synthesis and t1/2 of BPP was determined spectroscopically at 265 nm. The synthesis of BPP with D1*D2D3 sonicate and 10 mM glucosone in a 500 μL reaction was followed until the absorbance reached ˜1.4 (about 14 minutes). The reaction was then passed through a 3,000 MWCO Nanosep centrifugal filter (PALL Life Sciences) by centrifuging for 4 minutes at 14,000×g and 200 μL of filtrate followed at A265 every 4 s. The decay of A265 was normalized to the highest and lowest measured values, with the highest A265 set to 1 and the lowest to 0. To determine whether the t1/2 was 0th, 1st or 2nd order, the natural log of the data was plotted against time. After determining that the decay followed 1st-order decay, t1/2 was calculated using the Solver add-in for Microsoft Excel, minimizing the sum of squared differences between the measured and modeled data calculated using Equation 1.

[2] = Partition coefficient of HBL extraction from aqueous solution into organic solvent (GC/FID); type: physicochemical
Text: One potential application of HBL, which may have high value, is as a pharmaceutical precursor, which depends on its enantiomeric purity. To identify the chirality of the HBL produced by the above process, gas chromatography (GC) with flame ionization detection (FID) was applied using a MilliporeSigma® Supelco® ß-Dex 255 capillary GC column containing a chiral stationary phase of 2,3-diO-acetyl-6-0-TBDMS-ß-cyclodextrin. (MilliporeSigma and Supelco are registered trademarks of Merck KGaA of Darmstadt, Germany) This column successfully separated the enantiomers of HBL, although the retention times depended on the solvent in which the HBL was dissolved. Based on the reaction network from glucose to HBL, the chirality should be preserved at the C-5 position (FIG. 1). The reaction product solution was extracted with ethyl acetate, and the organic phase analyzed by GC/FID. […] The partition coefficient of HBL extraction into ethyl acetate was 0.1±0.02, and quantification of the HBL in the ethyl acetate coupled with this partition coefficient leads to an overall yield of HBL from glucose of 90%, which is limited by equilibrium, vide supra. HBL can also be extracted into THE, with a partition coefficient of 1.3±0.5, and propylene carbonate, with a partition coefficient of 0.5±0.1.

Compound	half-life [1]	partition coefficient of HBL extraction into THF ([2]; THF (printed THE) / aqueous solution)	partition coefficient of HBL extraction into ethyl acetate ([2]; ethyl acetate / aqueous reaction product solution)	partition coefficient of HBL extraction into propylene carbonate ([2]; propylene carbonate / aqueous solution)
O=C1C(O)=C[C@@H](CO)OC1O (stereo partly shown) [BPP]	3.7 min			
O=C1C[C@H](O)CO1 [HBL, (S)-3-hydroxy-γ-butyrolactone]		1.3 and 1.3±0.5	0.1 and 0.1±0.02	0.5±0.1
